Columns and labels:
hCX3CR1 [1] = molecular target: T1, hCX3CR1 (Homo sapiens, UniProt P49238); experiment: Ga16 assay, CX3CR1 agonism, Ca2+ sensitive photo-protein readout (FLIPRTETRA); assay type: cell-based; design: expressed in transfected cells; stably expresses a Ca2+ sensitive photo-protein; settings: human CX3CR1 cell line
T1 sequence (P49238 1-355): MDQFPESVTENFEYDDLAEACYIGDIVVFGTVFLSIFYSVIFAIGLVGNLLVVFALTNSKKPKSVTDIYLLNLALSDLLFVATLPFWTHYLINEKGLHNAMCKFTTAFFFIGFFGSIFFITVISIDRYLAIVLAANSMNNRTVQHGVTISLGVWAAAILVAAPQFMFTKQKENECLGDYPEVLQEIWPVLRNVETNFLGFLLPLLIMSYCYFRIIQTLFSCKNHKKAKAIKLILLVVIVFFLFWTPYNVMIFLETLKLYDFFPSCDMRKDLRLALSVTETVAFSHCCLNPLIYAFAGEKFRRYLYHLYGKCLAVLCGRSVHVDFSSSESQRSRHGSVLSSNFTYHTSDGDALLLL
How it was run: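 Cells expressing human, mouse or rat CX3CR1 with a stably expressed Ca2+-sensitive photoprotein were loaded with 10 μM coelenterazine in tyrode buffer pH 7.4 for 3 h at room temperature. Agonist-mode luminescence kinetics were recorded for 90 s after compound injection on FLIPRTETRA. Dose-response runs were done in quadruplicate, with fractalkine as the reference agonist.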

mouse CX3CR1 receptor = molecular target: T2, mouse CX3CR1 receptor (Mus musculus, UniProt Q9Z0D9); experiment: GTPγ[35S] Scintillation Proximity Assay, CHO-K1 cell membranes; assay type: biochemical
T2 construct: expressed in transfected cells; host or cells: CHO-K1 cell membranes
T2 sequence (Q9Z0D9 1-354): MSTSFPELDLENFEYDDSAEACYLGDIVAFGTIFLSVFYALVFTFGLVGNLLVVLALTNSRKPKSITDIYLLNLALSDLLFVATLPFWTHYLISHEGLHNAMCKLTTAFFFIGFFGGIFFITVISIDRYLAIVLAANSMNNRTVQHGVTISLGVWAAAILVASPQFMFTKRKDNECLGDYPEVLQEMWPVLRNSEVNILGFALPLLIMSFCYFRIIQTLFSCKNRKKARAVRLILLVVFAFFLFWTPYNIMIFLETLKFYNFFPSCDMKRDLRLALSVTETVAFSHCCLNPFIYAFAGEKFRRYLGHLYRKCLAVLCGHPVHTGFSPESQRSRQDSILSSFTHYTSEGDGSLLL
Method: (§1) GTPγ[^35S] Scintillation Proximity Assay
(§2) Compounds were tested for agonist activity at the mouse and human CX3CR1 receptor using cell membranes from CHO-K1 cells expressing recombinant mouse or human CX3CR1. For agonist testing, membranes are mixed with GDP. In parallel, GTPγ[^35S] is mixed with the beads just before starting the reaction. The following reagents are successively added in the wells of an Optiplate (Perkin Elmer): 50 μL of test or reference ligand, 10 μL of assay buffer, 20 μL of the membranes:GDP mix, and 20 μL of the GTPγ[^35S]:beads mix. The plates are covered with a top seal, mixed on an orbital shaker for 2 min, and then incubated for 1 hour at room temperature. Then the plates are centrifuged for 10 min at 2000 rpm, incubated at room temperature 1 hour and counted for 1 min/well with a PerkinElmer TopCount reader.

hCX3CR1 [2] = molecular target: T1, hCX3CR1; experiment: as above; assay type: biochemical; design: expressed in transfected cells; host or cells: CHO-K1 cell membranes
Method: as §1, §2

[3] = tested on: THP-1 cell adhesion to HepG2 cells; experiment: CX3CR1-dependent THP-1 cell adhesion to HepG2 cells; assay type: cell-based; settings: THP-1 pre-treated with compound 30 min, FIG. 1
Method: CX3CR1 Agonists Prevent CX3CR1-Dependent THP-1 Cell Adhesion to HepG2 Cells
This assay measures the adhesion of THP-1 monocytes, which constitutively express CX3CR1, to HepG2 cells, a fractalkine-expressing cell line. Briefly, HepG2 cells were seeded at 80,000 cells per well in 96-well plates and allowed to form a monolayer overnight. The following day, THP-1 cells (at 2×10^6 cells/mL) were fluorescently labeled with Calcein-AM (5 μM) and pre-treated with compound at the doses indicated for 30 min. Labeled THP-1 cells were subsequently seeded (50,000/well) into the HepG2-containing plates and incubated for 30 min before imaging for Calcein-AM signal on the INCell Analyzer Imaging System. After four washes, the plates were imaged once again to calculate THP-1 cell adhesion, as measured by the percentage of cells remaining on the plates. […] These agonists behave as functional antagonists in the cell adhesion assay by blocking the interaction between CX3CR1 and fractalkine.

EC50 (hCX3CR1 [1]) [µM]	SMILES	also measured
10.5	O=C(NCC1(CN2CCC(O)C2)CCCC1)c1cc2c(s1)CCCCCC2 (racemic) [Example 25, N-[[1-[(3-hydroxypyrrolidin-1-yl)methyl]cyclopentyl]methyl]-4,5,6,7,8,9-hexahydrocycloocta[b]thiophene-2-carboxamide]	
11.5	CC(C)(CNC(=O)c1cc2c(s1)CCCCCC2)CN1CCCC1 [Example 1, N-(2,2-dimethyl-3-pyrrolidin-1-ylpropyl)-4,5,6,7,8,9-hexahydrocycloocta[b]thiophene-2-carboxamide]	EC50 (mouse CX3CR1 receptor): 41.4 µM; Emax (mouse CX3CR1 receptor): 44%; EC50 (hCX3CR1 [2]): 1.3 µM; Emax (hCX3CR1 [2]): 60%; THP-1 cell adhesion to HepG2 cells [3]: prevented THP-1 adhesion to HepG2 cells in a dose-dependent manner
9.3	CN(C)CC1(CNC(=O)c2cc3c(s2)CCCCCC3)CCCC1 [Example 2, N-[[1-[(dimethylamino)methyl]cyclopentyl]methyl]-4,5,6,7,8,9-hexahydrocycloocta[b]thiophene-2-carboxamide]	EC50 (mouse CX3CR1 receptor): 8.5 µM; Emax (mouse CX3CR1 receptor): 55%; EC50 (hCX3CR1 [2]): 0.8 µM; Emax (hCX3CR1 [2]): 80%; THP-1 cell adhesion to HepG2 cells [3]: prevented THP-1 adhesion to HepG2 cells in a dose-dependent manner
8.4	O=C(NCC1(CN2CCCC2)CCCC1)c1cc2c(s1)CCCCCC2 [Example 5, N-[[1-(pyrrolidin-1-ylmethyl)cyclopentyl]methyl]-4,5,6,7,8,9-hexahydrocycloocta[b]thiophene-2-carboxamide]	
12.3	CC(C)(CNC(=O)c1cc2c(s1)CCCCCC2)CN1CCCCC1 [Example 13, N-(2,2-dimethyl-3-piperidin-1-ylpropyl)-4,5,6,7,8,9-hexahydrocycloocta[b]thiophene-2-carboxamide]	
19.3	O=C(NCC1(CN2CCCCC2)CCCC1)c1cc2c(s1)CCCCCC2 [Example 15, N-[[1-(piperidin-1-ylmethyl)cyclopentyl]methyl]-4,5,6,7,8,9-hexahydrocycloocta[b]thiophene-2-carboxamide]	
6	O=C(NCC1(CN2CCCC2)CCC1)c1cc2c(s1)CCCCCC2 [Example 21, N-[[1-(pyrrolidin-1-ylmethyl)cyclobutyl]methyl]-4,5,6,7,8,9-hexahydrocycloocta[b]thiophene-2-carboxamide]	
10.5	CN(C)CC1(CNC(=O)c2cc3c(s2)CCCCCC3)CCC1 [Example 23, N-[[1-[(dimethylamino)methyl]cyclobutyl]methyl]-4,5,6,7,8,9-hexahydrocycloocta[b]thiophene-2-carboxamide]	
11.3	O=C(NCC1(CN2CCCC(O)C2)CCCC1)c1cc2c(s1)CCCCCC2 (stereo not shown) [Example 27, N-[[1-[(3-hydroxypiperidin-1-yl)methyl]cyclopentyl]methyl]-4,5,6,7,8,9-hexahydrocycloocta[b]thiophene-2-carboxamide]	
8.2	O=C(NCC1(CN2CCC(O)CC2)CCCC1)c1cc2c(s1)CCCCCC2 [Example 28, N-[[1-[(4-hydroxypiperidin-1-yl)methyl]cyclopentyl]methyl]-4,5,6,7,8,9-hexahydrocycloocta[b]thiophene-2-carboxamide]	
10.2	CN(CCO)CC1(CNC(=O)c2cc3c(s2)CCCCCC3)CCC1 [Example 30, N-[[1-[[2-hydroxyethyl(methyl)amino]methyl]cyclobutyl]methyl]-4,5,6,7,8,9-hexahydrocycloocta[b]thiophene-2-carboxamide]	
9.4	CN(C)CC1(CNC(=O)c2cc3c(s2)CCCCCC3)CC(O)C1 (stereo not shown) [Example 31, N-[[1-[(dimethylamino)methyl]-3-hydroxycyclobutyl]methyl]-4,5,6,7,8,9-hexahydrocycloocta[b]thiophene-2-carboxamide]	
9.1	O=C(NCC1(CN2CCCC2)CC(O)C1)c1cc2c(s1)CCCCCC2 (stereo not shown) [Example 32, N-[[3-hydroxy-1-(pyrrolidin-1-ylmethyl)cyclobutyl]methyl]-4,5,6,7,8,9-hexahydrocycloocta[b]thiophene-2-carboxamide]	
17	CN(C)CC(C)(C)CNC(=O)c1cc2c(s1)CCCCCC2 [Example 70, N-[3-(dimethylamino)-2,2-dimethylpropyl]-4,5,6,7,8,9-hexahydrocycloocta[b]thiophene-2-carboxamide]	EC50 (mouse CX3CR1 receptor): > 50 µM; Emax (mouse CX3CR1 receptor): 26%; EC50 (hCX3CR1 [2]): 4.1 µM; Emax (hCX3CR1 [2]): 61%

Reference: US12258337B2, “Bicyclic CX3CR1 receptor agonists” (Board of Regents, The University of Texas System, priority 2019, dated 2025)
